Results as given in publication PMC10638401, “Mannich-type modifications of (−)-cannabidiol and (−)-cannabigerol leading to new, bioactive derivatives” (Scientific Reports, 2023).
Converted amounts (≈) assume the structure as drawn. Where two headings read alike, the source gives them in different places.

What was measured:
[1] = system: Enterococcus faecalis 51299 VanB; assay: MIC, broth micro dilution
Description: (§6) According to CLSI guideline the Minimal Inhibitory Concentrations (MICs) of the prepared compounds were determined with the broth micro dilution method. After an overnight growth on 5% bovine blood agar plates at 35 °C bacterial strains were suspended in physiological saline in order to reach the density of 0.5 McFarland for inoculation. Stock solutions containing different concentrations of the substances were prepared in DMSO and H2O (1:1). These were twofold serially diluted from 256 to 0.5 mg/l in Mueller–Hinton broth, and 100 ml of each dilution was inoculated with 10 ml of each bacterial suspension.

Bacillus subtilis = assay: MIC, broth micro dilution
Description: as §6

[2] = system: Staphylococcus epidermidis biofilm forming; assay: MIC, broth micro dilution
SARS-CoV-2 [3] = assay: SARS-CoV-2 cytopathic effect (CPE) inhibition assay in Vero E6 cells (XTT); assay type: cell-based; conditions: for EC50: Vero E6 cells, 3 days post-infection, XTT
Description: (§1) CBD and CBG derivatives were further tested for their ability to inhibit SARS-CoV-2 replication in Vero E6 cells. Initially, the inhibition of virus-induced cytopathic effect was measured by addition of twofold serial dilutions of each derivative to the cells, followed by the infection with SARS-CoV-2 and determination of the cell viability 3 days post-infection by XTT assay. Concurrently, the cytotoxicity of each compound was assessed from identical dilutions in uninfected Vero E6 cells. To confirm anti-SARS-CoV-2 activity in the CPE inhibition assay, selected compounds were tested in immunofluorescence assay, where inhibition of SARS-CoV-2 replication was monitored as reduction in nucleoprotein expression using fluorescence microscope. […] Among the CBG derivatives, we can find quite cytotoxic and non-cytotoxic derivatives as well.
(§2) For CPE-based assay, two-fold fold serial dilutions of compounds from 100 µM were added in triplicate in a 384-well plate with 5000 Vero E6 cells in DMEM medium with 2% FBS, 100 U of penicillin/ml and 100 µg of streptomycin/ml (all Merck). After 1 h incubation SARS-CoV-2 (strain hCoV-19/Czech Republic/NRL_6632_2/2020) was added at multiplicity of infection […]. Following three days incubation at 37 °C in 5% CO2 the cell viability was determined by addition of XTT solution (Sigma-Aldrich) for 4 h and the absorbance was measured using EnVision plate reader (Perkin Elmer). Drug concentrations required to reduce viral cytopathic effect by 50% (EC50) were calculated using nonlinear regression from plots of percentage cell viability versus log10 drug concentration using GraphPad Prism (version 9.0.0, GraphPad Software, LLC). For immunofluorescence assay, two-fold fold serial dilutions of compounds from 100 µM were added in triplicate in 96-well plate with 15,000 Vero E6 cells plated day before in the same medium as above. After 1 h incubation, SARS-CoV-2 was added at multiplicity of infection 0.05 IU/cell. After three days of incubation, cells were fixed with 4% paraformaldehyde, permeabilized with 0.2% Triton X100 (both Merck), washed, incubated with anti-SARS-CoV-2antibody (mouse monoclonal antibody detecting SARS-CoV-2 nucleoprotein) for 2 h at room temperature. Followed by 1.5 h incubation with Cy3-labeled donkey anti-mouse IgG (Jackson ImmunoResearch Europe) and documented using fluorescence microscope with camera (Olympus). Images were processed in ImageJ software (NIH) and compound concentrations required to reduce fluorescence by 50% (EC50s) were calculated from plots of percentage of fluorescent cells versus log10 drug concentration using nonlinear regression analysis as above. Cytotoxicity was evaluated by incubating with the same two-fold serial dilutions of each compound as above with Vero E6 cells in 384-well plate.

[4] = system: Enterococcus faecalis 29 212; assay: MIC, broth micro dilution
Description: as §6

SZ95 sebocytes [5] = assay: Viability MTT-assay on sebocytes, 48 h; assay type: cell-based, human; conditions: 30 μM
Description: (§3) Human immortalized SZ95 sebocytes, originated from human facial sebaceous glands[50] were provided by prof. Christos C. Zouboulis, and were cultured in Sebomed® Basal Medium (Cat. No. F8205; Sigma-Aldrich) supplemented with 10% FBS (Gibco-Thermo Fisher Scientific), 1 mM CaCl2 (Cat. No. C7902; Sigma-Aldrich), 5 ng/ml human epidermal growth factor (Cat. No. E9644; Sigma-Aldrich), and MycoZap™ Plus-CL (1:500; Lonza). The medium was changed every other day, and cells were subcultured at 60–70% confluence.
The viability of HaCaT keratinocytes and SZ95 sebocytes was determined by MTT-assay[58] (Cat. No. M5655; Sigma-Aldrich) measuring the conversion of the tetrazolium salt to formazan by mitochondrial dehydrogenases. Cells were plated in 96-well plates (20,000 cells/well), and were treated as indicated. Cells were then incubated with 0.5 mg/ml MTT reagent for 3 h, and concentration of formazan crystals (as an indicator of number of viable cells) was determined colorimetrically at 565 nm by using FlexStation 3 multi-mode microplate reader (Molecular Devices). Results were expressed as percentage of vehicle-treated control regarded as 100%.

MCF7 cells = assay: Antiproliferative MTT assay, 72 h; assay type: cell-based, human; conditions: for antiproliferative activity (in words): MCF7, 10 and 30 μM
Description: (§4) Human adherent cancer cell lines A2780, MDA-MB-231 and MCF-7 were obtained from ECACC (European Collection of Cell Cultures, Salisbury, UK; Cat. No.93112519, 92020424, 86012803, respectively). SiHa cell line was obtained from ATCC (American Tissue Culture Collection, Manassas, Virginia, USA; Cat. No. HTB-35). All cell lines used for antiproliferative assay were maintained in Eagle's Minimum Essential Medium (EMEM) completed with 10% fetal bovine serum (FBS), 1% non-essential amino acid solution, and 1% penicillin, streptomycin, and amphotericin B mixture under cell culture conditions described before. All the utilized media and supplements were purchased from Lonza Group Ltd. (Basel, Switzerland).
(§5) The antiproliferative actions of the prepared molecules were determined by the same assay against a panel of adherent human cancer cell lines containing cervical (SiHa), ovarian (A2780) and breast (MCF7, MDA-MB-231) cell lines. Cells were plated onto 96-well microplates (5000 cells/well) and after an overnight incubation treated with two concentrations (10 or 30 μM) of the test substances for 72 h under cell culture conditions. Subsequently, MTT (5 mg/ml in phosphate buffer) was added to the wells, followed by incubation for 4 h. The supernatant was removed, the formazan crystals were then dissolved in 100 µl DMSO. Finally, absorbance values were determined by a microplate reader (BMG Labtech, Ortenberg, Germany) at 545 nm. Two independent measurements were performed with five parallel wells. Results were expressed as percentage of cell proliferation inhibition compared to non-treated control samples regarded as 0%.

SZ95 sebocytes [6] = assay: Nile Red-assay, spontaneous sebaceous lipogenesis; assay type: cell-based, human; conditions: applied alone, 48 h
[7] = system: MSSA (Methicillin Sensitive Staphylococcus aureus); assay: MIC, broth micro dilution
SZ95 sebocytes [8] = assay: Nile Red-assay, arachidonic acid-induced lipogenesis; assay type: cell-based, human; conditions: 50 μM arachidonic acid, 48 h
Description: as §3
For quantitative measurement of sebaceous (neutral) lipid content, SZ95 sebocytes (20,000 cells/well) were cultured in 96-well “black well/clear bottom” plates (Cat. No. 655090; Greiner Bio-One, Frickenhausen, Germany), and were treated with compounds in the presence or absence of arachidonic acid (AA; Cat. No. 90010; Cayman Chemical Company, Ann Arbor, MI, USA) or its vehicle (absolute ethanol) as indicated. Subsequently, supernatants were discarded, cells were washed twice with phosphate-buffered saline (PBS; 115 mM NaCl, 20 mM Na2HPO4, pH 7.4; all from Sigma-Aldrich), and 100 µl of a 1 µg/ml Nile Red (Cat. No. N3013; Sigma-Aldrich) solution in PBS was added to each well. The plates were then incubated at 37 °C for 30 min, and fluorescence was measured on FlexStation 3 multimode microplate reader (Molecular Devices, San Francisco, CA, USA). Results, measured in relative fluorescence units, are expressed as percentage of the vehicle (absolute ethanol; Cat. No. 20821.296; VWR International)-treated control regarded as 100%, using 485 nm excitation and 565 nm emission wavelengths.

[9] = system: MRSA (Methicillin Resistant Staphylococcus aureus); assay: MIC, broth micro dilution
SARS-CoV-2 [10] = assay: SARS-CoV-2 immunofluorescence assay (nucleoprotein expression) in Vero E6 cells; assay type: cell-based; conditions: three days
Description: as §1, §2

Vero E6 cells = conditions: uninfected Vero E6 cells, three days, XTT
[11] = system: Enterococcus faecalis 15 376 VanA; assay: MIC, broth micro dilution
Description: as §6

[12] = system: Staphylococcus epidermidis mecA; assay: MIC, broth micro dilution
Description: as §6

MDA-MB-231 cells = assay: Antiproliferative MTT assay, 72 h; assay type: cell-based, human; conditions: MDA-MB-231, 10 and 30 μM
Description: as §4, §5

A2780 cells = assay: Antiproliferative MTT assay, 72 h; assay type: cell-based, human; conditions: A2780, 10 and 30 μM
Description: as §4, §5

SiHa cells = assay: Antiproliferative MTT assay, 72 h; assay type: cell-based, human; conditions: 10 and 30 μM
Description: as §4, §5

in vitro = conditions: African green monkey
[13] = Enterococcus faecalis 51299 VanB
[14] = Staphylococcus epidermidis biofilm forming
[15] = Enterococcus faecalis 15 376 VanA
[16] = Staphylococcus epidermidis mecA
[17] = Severe acute respiratory syndrome coronavirus 2, Vero C1008, 72 h

Row | SMILES | MIC [1, 13] [µg/mL] | MIC (Bacillus subtilis) [µg/mL] | MIC [2, 14] [µg/mL] | EC50 (SARS-CoV-2 [3]) [µM] | MIC ([4]; Enterococcus faecalis 29 212) [µg/mL] | viability (MTT signal intensity) (SZ95 sebocytes [5]) | antiproliferative activity (in words) (MCF7 cells) | spontaneous, homeostatic sebaceous lipogenesis (SZ95 sebocytes [6]) | MIC [7] [µg/mL] | effect on the lipogenic effect of arachidonic acid (AA) (SZ95 sebocytes [8]) | MIC [9] [µg/mL] | EC50 (SARS-CoV-2 [10]) [µM] | CC50 (Vero E6 cells) [µM] | MIC [11, 15] [µg/mL] | MIC [12, 16] [µg/mL] | antiproliferative activity (in words) (MDA-MB-231 cells) | antiproliferative activity (in words) (A2780 cells) | antiproliferative activity (in words) (SiHa cells) | also measured
1 | C=C(C)[C@@H]1CCC(C)=C[C@H]1c1c(O)cc(CCCCC)c2c1OCN(CCCC)C2 [Compound 8] | 2 (≈ 4.86 µM) | > 256 | > 256 | 21 ± 3.7 | 2 (≈ 4.86 µM) | cytotoxic effects | more sensitive | rather promote spontaneous, homeostatic sebaceous lipogenesis | > 256 | mimic this lipostatic effect | > 256 | 31 ± 1.1 | > 100 | > 256 | > 256 |  |  |  | inhibition of the proliferation (in words) (MCF7 cells; MCF7, 10 μM): much more potent than the parent CBD; promotion of spontaneous sebaceous lipogenesis, significance (SZ95 sebocytes [6]; 10 and 30 μM): statistically significant
2 | C#CCN1COc2c(c(CCCCC)cc(O)c2[C@@H]2C=C(C)CC[C@H]2C(=C)C)C1 [Compound 11] | 128 (≈ 325 µM) | > 256 | > 256 | 17 ± 1.5 | 128 (≈ 325 µM) |  | None of the other tested CBD analogs (9, 11, and 12) exhibited substantial antiproliferative activity |  | > 256 |  | > 256 | 33 ± 1.4 | 77 ± 2.6 | > 256 | > 256 | None of the other tested CBD analogs (9, 11, and 12) exhibited substantial antiproliferative activity | None of the other tested CBD analogs (9, 11, and 12) exhibited substantial antiproliferative activity | None of the other tested CBD analogs (9, 11, and 12) exhibited substantial antiproliferative activity | 
3 | CCCCCc1cc(O)c(C/C=C(\C)CCC=C(C)C)c2c1CN(CCCC)CO2 [Compound 16a] |  |  |  |  |  | tended to suppress viability |  | mimicked the previously reported weak lipogenic effect of CBG |  | suppress the effect of AA |  |  |  |  |  |  |  |  | 
4 | CCCCCc1c2c(c(C/C=C(\C)CCC=C(C)C)c3c1CN(CCCC)CO3)OCN(CCCC)C2 [Compound 16b] | 64 (≈ 125 µM) | > 256 | > 256 | > 7.7 | 64 (≈ 125 µM) |  | more active than CBG |  | > 256 |  | > 256 |  | 7.7 ± 3.2 | > 256 | > 256 | more active than CBG | more active than CBG | more active than CBG | 
5 | C#CCN1COc2c(C/C=C(\C)CCC=C(C)C)c(O)cc(CCCCC)c2C1 [Compound 18] | 64 (≈ 162 µM) | > 256 | > 256 | 15 ± 0.94 | 64 (≈ 162 µM) |  |  |  | > 256 |  | > 256 | > 28 | ~28 | > 256 | > 256 |  |  |  | 
6 | CCCCCc1c(CN(CC)CC)c(O)c(C/C=C(\C)CCC=C(C)C)c(O)c1CN(CC)CC [Compound 21b] |  | > 256 |  |  |  | rather increased MTT signal intensity |  | mimicked the previously reported weak lipogenic effect of CBG |  | suppress the effect of AA |  |  |  |  |  |  |  |  | MIC ([1]; Enterococcus faecalis, 51299VANB): 64 µg/mL (≈ 131 µM); MIC ([2]; Staphylococcus epidermidis): > 256 µg/mL; CC50 (in vitro): > 100 µM; EC50 (SARS-CoV-2 [3]; [17]): 12 ± 0.99 µM; IC50 (SARS-CoV-2 [3]; Severe acute respiratory syndrome coronavirus 2, Vero C1008, read-out: IC50 (anti-SARS-CoV-2 activity, Figure 8)): 12 µM; MIC ([4]; Enterococcus faecalis, 29212): 64 µg/mL (≈ 131 µM); MIC ([7]; Staphylococcus aureus): > 256 µg/mL; MIC ([9]; Staphylococcus aureus): > 256 µg/mL; EC50 (SARS-CoV-2 [10]; [17]): > 100 µM; MIC ([11]; Enterococcus faecalis, 15376VANA): > 256 µg/mL; MIC ([12]; Staphylococcus epidermidis): > 256 µg/mL
